Reference: patent US9247746B2, “Fungicidal substituted 1-{2-cyclyloxy-2-[2-halo-4-(4-halogen-phenoxy)-phenyl]-ethyl}-1H-[1,2,4]triazole compounds” (BASF SE, priority 2011, dated 2016)

Tests used:
Phakopsora pachyrhizi = experiment: Protective control of soy bean rust on soy beans (Phakpa P2), green house; assay type: in vivo; conditions: inoculated 2 days after spraying, untreated control 90
Protocol: The spray solutions were prepared in several steps:
The stock solution were prepared: a mixture of acetone and/or dimethylsulfoxide and the wetting agent/emulsifier Wettol, which is based on ethoxylated alkylphenoles, in a relation (volume) solvent-emulsifier of 99 to 1 was added to 25 mg of the compound to give a total of 5 ml. Water was then added to total volume of 100 ml. This stock solution was diluted with the described solvent-emulsifier-water mixture to the given concentration. G1. Preventative Control of Brown Rust on Wheat Caused by Puccinia recondita (Puccrt P1)
G4. Protective Control of Soy Bean Rust on Soy Beans Caused by Phakopsora pachyrhizi (Phakpa P2)
Leaves of pot-grown soy bean seedlings were sprayed to run-off with an aqueous suspension, containing the concentration of active ingredient or their mixture as described below. The plants were allowed to air-dry. The trial plants were cultivated for 2 days in a greenhouse chamber at 23-27° C. and a relative humidity between 60 and 80%. Then the plants were inoculated with spores of Phakopsora pachyrhizi. To ensure the success the artificial inoculation, the plants were transferred to a humid chamber with a relative humidity of about 95% and 20 to 24° C. for 24 h. […] The extent of fungal attack on the leaves was visually assessed as % diseased leaf area.

Septoria tritici [1] = experiment: Microtest: activity against leaf blotch on wheat (Septtr); assay type: cell-based
Protocol: The active compounds were formulated separately as a stock solution having a concentration of 10000 ppm in dimethyl sulfoxide. M2. Activity Against Leaf Blotch on Wheat Caused by Septoria tritici(Septtr) The stock solutions were mixed according to the ratio, pipetted onto a micro titer plate (MTP) and diluted with water to the stated concentrations. A spore suspension of Septoria tritici in an aqueous biomalt or yeast-bactopeptone-glycerine solution was then added. The plates were placed in a water vapor-saturated chamber at a temperature of 18° C. Using an absorption photometer, the MTPs were measured at 405 nm 7 days after the inoculation.

Septoria tritici [2] = experiment: Preventative control of leaf blotch on wheat (Septtr P7), green house; assay type: in vivo; conditions: inoculated 7 days after spraying, untreated control 90
Protocol: The spray solutions were prepared in several steps: The stock solution were prepared: a mixture of acetone and/or dimethylsulfoxide and the wetting agent/emulsifier Wettol, which is based on ethoxylated alkylphenoles, in a relation (volume) solvent-emulsifier of 99 to 1 was added to 25 mg of the compound to give a total of 5 ml. Water was then added to total volume of 100 ml. This stock solution was diluted with the described solvent-emulsifier-water mixture to the given concentration. G1. Preventative Control of Brown Rust on Wheat Caused by Puccinia recondita (Puccrt P1) G3. Preventative Control of Leaf Blotch on Wheat Caused by Septoria tritici (Septtr P7) Leaves of pot-grown wheat seedling were sprayed to run-off with an aqueous suspension of the active compound or their mixture, prepared as described. The plants were allowed to air-dry. Seven days later the plants were inoculated with an aqueous spore suspension of Septoria tritici. Then the trial plants were immediately transferred to a humid chamber at 18-22° C. and a relative humidity close to 100%. After 4 days the plants were transferred to a chamber with 18-22° C. and a relative humidity close to 70%. After 4 weeks the extent of fungal attack on the leaves was visually assessed as % diseased leaf area.

For `CCC(Cn1cncn1)(OC)c1ccc(Oc2ccc(Cl)cc2)cc1Cl` (stereo not shown), the “Disease (%) at 63 ppm Phakpa P2” value (Phakopsora pachyrhizi) was 60%.

`CC(Cn1cncn1)(OCc1ccccc1)c1ccc(Oc2ccc(Cl)cc2)cc1Cl` (stereo not shown) [I-1, 1-[2-benzyloxy-2-[2-chloro-4-(4-chlorophenoxy)phenyl]propyl]-1,2,4-triazole] was tested, and the “Growth (%) at 0.00012 ppm Septtr” value (Septoria tritici [1]) was 23%.

`COC(C)(Cn1cncn1)c1ccc(Oc2ccc(Cl)cc2)cc1Cl` (stereo not shown) was tested, and the “Disease (%) at 16 ppm Septtr P7” value (Septoria tritici [2]) was 80% and the “Growth (%) at 0.00012 ppm Septtr” value (Septoria tritici [1]) was 63%.
